Measurements: the supplement of paper PMC4862054

Legend:
Assay in all cases: normalised response (% of control), CellTiter-Glo; higher = more viable cells (100 = DMSO, 0 = benzethonium chloride kill control)
Conditions in all cases: incubation time: 72 h
HCC1599 = tested on: HCC1599
In short: (§1)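 Two readouts were taken after 72 h: CellTox Green fluorescence (485/520 nm) first, then CellTiter-Glo luminescence after 10 min at room temperature. Breast cancer cell lines had been seeded as 20 µl suspension into 384-well plates holding compound at 5 concentrations in 10-fold steps across a compound-specific 10,000-fold range. Each value is a normalised signal at a single concentration, with plates scaled to 0.1 % DMSO (100) and a positive kill control (0).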

CAL-120 = tested on: CAL-120
In short: as §1

HCC1143 = tested on: HCC1143
In short: as §1

CAL-51 = tested on: CAL-51
In short: as §1

BT-474 = tested on: BT-474
In short: as §1

MFM-223 = tested on: MFM-223
In short: as §1

CAL-148 = tested on: CAL-148
In short: as §1

HCC1937 = tested on: HCC1937
In short: as §1

HDQ-P1 = tested on: HDQ-P1
In short: as §1

MDA-MB-453 = tested on: MDA-MB-453
In short: as §1

DU-4475 = tested on: DU-4475
In short: as §1

CAL-85-1 = tested on: CAL-85-1
In short: as §1

MDA-MB-436 = tested on: MDA-MB-436
In short: as §1

BT-549 = tested on: BT-549
In short: as §1

MCF-10A = tested on: MCF-10A
In short: as §1

MDA-MB-231 = tested on: MDA-MB-231
In short: as §1

SK-BR-3 = tested on: SK-BR-3
In short: as §1

Hs578T = tested on: Hs578T
In short: as §1

MDA-MB-468 = tested on: MDA-MB-468
In short: as §1

Structure (SMILES) | normalised response (HCC1599) [%] | normalised response (CAL-120) [%] | normalised response (HCC1143) [%] | normalised response (CAL-51) [%] | normalised response (BT-474) [%] | normalised response (MFM-223) [%] | normalised response (CAL-148) [%] | normalised response (HCC1937) [%] | normalised response (HDQ-P1) [%] | normalised response (MDA-MB-453) [%] | normalised response (DU-4475) [%] | normalised response (CAL-85-1) [%] | normalised response (MDA-MB-436) [%] | normalised response (BT-549) [%] | normalised response (MCF-10A) [%] | normalised response (MDA-MB-231) [%] | normalised response (SK-BR-3) [%] | normalised response (Hs578T) [%] | normalised response (MDA-MB-468) [%]
C[C@]12CC[C@@H]3c4ccc(O)cc4C[C@@H](CCCCCCCCC[S+]([O-])CCCC(F)(F)C(F)(F)F)[C@H]3[C@@H]1CC[C@@H]2O (some centres undefined) [Fulvestrant] (0.1 nM) | 93.4 | 95.7 | 95.3 | 123 | 101 | 107 | 102 | 105 | 101 | 112 | 102 | 101 | 105 | 109 | 107 | 100 | 108 | 112 | 101
CCCCCCCCCCCCCCCCCCOP(=O)([O-])OC1CC[N+](C)(C)CC1 [Perifosine] (0.25 nM) | 113 | 108 | 103 | 102 | 99.4 | 92.3 | 99.2 | 98.8 | 106 | 105 | 92.7 | 96.5 | 116 | 107 | 101 | 99.6 | 92.3 | 108 | 99
COc1cc2nccc(Oc3ccc(NC(=O)C4(C(=O)Nc5ccc(F)cc5)CC4)cc3)c2cc1OC [Cabozantinib] (1 nM) | 107 | 100 | 99.1 | 122 | 97.3 | 102 | 95.9 | 94.4 | 99.3 | 105 | 101 | 96.1 | 96.6 | 98.8 | 93.5 | 104 | 101 | 102 | 102
O=C(O)c1ccc(-c2c[nH]c3ncc(-c4ccccc4)cc23)cc1C1CCCC1 (1 nM) | 83.8 | 94.8 | 97.5 | 125 | 95.4 | 94.5 | 96.5 | 91.1 | 93.7 | 99.3 | 97.3 | 98.4 | 92.8 | 103 | 89.7 | 94.2 | 89.6 | 98.3 | 92.9
Oc1nc(-c2ccc(C(F)(F)F)cc2)nc2c1CSCC2 [XAV-939] (10 nM) | 108 | 93.8 | 99.8 | 78.4 | 102 | 98.9 | 101 | 101 | 97.8 | 106 | 104 | 98.7 | 99.9 | 98.6 | 105 | 95.4 | 117 | 102 | 92.9
N#CCNC(=O)c1ccc(-c2ccnc(Nc3ccc(N4CCOCC4)cc3)n2)cc1 [Momelotinib] (10 nM) | 89.8 | 95.1 | 100 | 80.9 | 94.2 | 94.2 | 94.9 | 96.8 | 103 | 89.5 | 97.2 | 97.1 | 101 | 99.6 | 103 | 97.4 | 115 | 104 | 92.8
Cc1ccc(C(=O)N(CCCN)[C@@H](c2oc3cc(Cl)ccc3c(=O)c2Cc2ccccc2)C(C)C)cc1 (0.01 nM) | 112 | 96.6 | 102 | 81.7 | 95.3 | 92.1 | 91.8 | 102 | 103 | 101 | 96.6 | 93.8 | 97.3 | 104 | 97.8 | 99 | 93.1 | 97.8 | 93
CC(=O)Nc1ccc(C(=O)Nc2ccccc2N)cc1 [Tacedinaline] (0.1 nM) | 100 | 92.1 | 92.9 | 113 | 102 | 97.1 | 93.2 | 98.4 | 94.2 | 104 | 100 | 104 | 101 | 99.5 | 98.4 | 98.9 | 105 | 96.7 | 105
CC1(C)NC(=O)N(c2ccc([N+](=O)[O-])c(C(F)(F)F)c2)C1=O [Nilutamide] (10 nM) | 113 | 97.9 | 101 | 127 | 105 | 112 | 112 | 101 | 95.6 | 103 | 109 | 96 | 110 | 105 | 110 | 102 | 117 | 99.1 | 93.3
CCC1(c2ccc(N)cc2)CCC(=O)NC1=O (centres undefined) [Aminoglutethimide] (10 nM) | 97 | 100 | 108 | 151 | 105 | 101 | 100 | 99.3 | 97.5 | 90.2 | 104 | 105 | 95.4 | 95.2 | 103 | 104 | 98.7 | 97.3 | 101
NC(=O)Nc1cc(-c2cccc(F)c2)sc1C(=O)N[C@H]1CCCNC1 [AZD7762] (0.1 nM) | 89.9 | 105 | 98.4 | 77 | 105 | 109 | 102 | 94.3 | 106 | 99.9 | 108 | 98.4 | 97.5 | 105 | 98.2 | 105 | 105 | 99.2 | 100
C[C@@H](Oc1cc(-c2cnn(C3CCNCC3)c2)cnc1N)c1c(Cl)ccc(F)c1Cl [Crizotinib] (0.1 nM) | 82 | 102 | 99.3 | 82.4 | 101 | 103 | 102 | 100 | 96.7 | 111 | 106 | 92.6 | 96.7 | 104 | 95.6 | 102 | 81.6 | 96.2 | 91.7
C=C(c1ccc(C(=O)O)cc1)c1cc2c(cc1C)C(C)(C)CCC2(C)C [Bexarotene] (10 nM) | 96.3 | 101 | 101 | 137 | 99.8 | 107 | 106 | 94.6 | 106 | 101 | 101 | 107 | 100 | 97.1 | 99.4 | 100 | 98.8 | 97 | 104
O=C(CCCCCCC(=O)Nc1ccc([C@H]2O[C@@H](CSc3nc(-c4ccccc4)c(-c4ccccc4)o3)C[C@@H](c3ccc(CO)cc3)O2)cc1)NO [Tubacin] (1 nM) | 93.5 | 96.1 | 98.9 | 119 | 94.2 | 96.8 | 97.6 | 93.3 | 94.6 | 103 | 100 | 92.4 | 82.1 | 100 | 92.8 | 97.5 | 101 | 100 | 91.5
CS(=O)(=O)c1ccc(C2=C(c3ccccc3)C(=O)OC2)cc1 [Rofecoxib] (1 nM) | 99.1 | 98.6 | 110 | 69.4 | 103 | 111 | 108 | 107 | 101 | 98.5 | 106 | 98.4 | 103 | 106 | 114 | 104 | 112 | 104 | 108
Cn1c(CCCC(=O)O)nc2cc(N(CCCl)CCCl)ccc21 [Bendamustine] (10 nM) | 106 | 107 | 107 | 100 | 111 | 106 | 110 | 102 | 101 | 107 | 111 | 102 | 104 | 99.3 | 110 | 103 | 110 | 103 | 106
O=C(CCCCCCC(=O)Nc1ccc([C@H]2O[C@@H](CSc3nc(-c4ccccc4)c(-c4ccccc4)o3)C[C@@H](c3ccc(CO)cc3)O2)cc1)NO [Tubacin] (10 nM) | 95.3 | 95.8 | 103 | 110 | 93.5 | 97.9 | 100 | 93.1 | 93 | 97.2 | 101 | 103 | 96 | 101 | 99.1 | 94.4 | 95.2 | 104 | 91.2
O=P1(NCCCl)OCCCN1CCCl (centres undefined) [Ifosfamide] (10 nM) | 89.3 | 93.2 | 98.1 | 118 | 96.8 | 89.1 | 86.1 | 95.8 | 98 | 87.7 | 92.5 | 100 | 94 | 95.9 | 96.1 | 101 | 94.9 | 102 | 91.6
Cc1ccc(C(=O)Nc2ccc(CN3CCN(C)CC3)c(C(F)(F)F)c2)cc1C#Cc1cnc2cccnn12 [Ponatinib] (1 nM) | 103 | 106 | 97.1 | 101 | 104 | 99.5 | 99.5 | 98.4 | 104 | 98.2 | 100 | 108 | 108 | 106 | 103 | 97.2 | 99.4 | 97.3 | 107
O=C1CCC(N2C(=O)c3ccccc3C2=O)C(=O)N1 (centres undefined) [Thalidomide] (10 nM) | 102 | 94.2 | 97.3 | 65.4 | 94 | 97.5 | 92.6 | 95.3 | 96.1 | 96.3 | 97.2 | 100 | 95.8 | 99.7 | 100 | 98.4 | 98.9 | 100 | 91.9
N[C@@H](CSC(c1ccccc1)(c1ccccc1)c1ccccc1)C(=O)O [S-trityl-L-cysteine] (40 nM) | 109 | 102 | 92.7 | 131 | 96.7 | 107 | 97.5 | 93.8 | 119 | 95 | 101 | 104 | 103 | 99.2 | 105 | 90.4 | 97.5 | 94.3 | 98.5
